Tested on: Phytophthora infestans
Experiment: whole plant or invertebrate
Assay type: in vivo
Conditions: in Solanum lycopersicum, 72 h, read-out: Efficacy in % based on the untreated control at an active compound concentration of 50 ppm

Point of comparison: Cc1noc(C)c1S(=O)(=O)n1c(Cl)nc2ccc(Sc3ccccc3)cc21 [drawing 110], pest or weed control at 50 ppm 99%. Against it:
- Cc1onc(N)c1S(=O)(=O)n1c(Cl)nc2cc3c(cc21)OC(F)(F)C(F)(F)O3 — lower, 97%
- Cc1noc(C)c1S(=O)(=O)n1c(Br)nc2cc3c(cc21)OC(F)(F)C(F)(F)O3 [drawing 101] — lower, 97%
- CN(C)S(=O)(=O)n1c(Br)nc2cc3c(cc21)OC(F)(F)C(F)(F)O3 — lower, 86%
- Cc1noc(C)c1S(=O)(=O)n1c(Br)nc2cc(Cl)c(Cl)cc21 — lower, 95%
- Cc1noc(C)c1S(=O)(=O)n1c(Cl)nc2ccccc21 — the same, 99%
- Cc1noc(C)c1S(=O)(=O)n1c(Br)nc2cc3c(cc21)OC(F)(F)O3 [drawing 100] — the same, 99%
- Cc1onc(N)c1S(=O)(=O)n1c(Br)nc2cc3c(cc21)OC(F)(F)O3 — lower, 95%
- Cc1noc(C)c1S(=O)(=O)n1c(Cl)nc2cc3c(cc21)OC(F)(F)O3 [drawing 109] — the same, 99%
- COc1ccc2c(c1)nc(Cl)n2S(=O)(=O)c1c(C)noc1C — lower, 96%

Tested on: Plasmopara viticola
Experiment: Plasmopara test (vines)/protective
Assay type: in vivo
Conditions: 50 ppm active compound; vines sprayed protectively; evaluated 6 days after inoculation; 100% = no disease

Point of comparison: Cc1noc(C)c1S(=O)(=O)n1c(Br)nc2cc3c(cc21)OC(F)(F)O3 [drawing 114], “Efficacy in % based on the untreated control at an active compound concentration of 50 ppm” value 99%. Against it:
- Cc1noc(C)c1S(=O)(=O)n1c(Cl)nc2cc3c(cc21)OC(F)(F)O3 [drawing 118] — higher, 100%
- Cc1noc(C)c1S(=O)(=O)n1c(Cl)nc2ccc(Sc3ccccc3)cc21 [drawing 119] — higher, 100%
- Cc1noc(C)c1S(=O)(=O)n1c(Br)nc2cc3c(cc21)OC(F)(F)C(F)(F)O3 [drawing 115] — lower, 93%

Tested on: not given
Experiment: not given
Conditions: not given

Point of comparison: Clc1nc2cc3c(cc2[nH]1)OCCO3, melting point 150 °C. Against it:
- FC1(F)Oc2cc3nc[nH]c3cc2OC1(F)F — lower, 70 to 74 °C
- FC1(F)Oc2cc3nc(Br)[nH]c3cc2OC1(F)F — higher, 170 to 174 °C
- Cc1noc(C)c1S(=O)(=O)n1c(Br)nc2cc3c(cc21)OC(F)(F)O3 — lower, 130 to 134 °C

— patent US6638960B2, “Halogenobenzimidazoles and their use as microbicides” (Bayer Aktiengesellschaft, priority 1995, dated 2003)
